Experimental data from PMC12363265, “Glucagon-like peptide-1 receptor agonists for treatment of diabetes and obesity: advantage of oral delivery” (Frontiers in Drug Delivery, 2024).
Where a SMILES comes first, the peptide text is derived from it. [ ]: non-standard residue; d: D form. The star is where a group is joined. ξ: configuration not given here. ξGly(octyl) = CCCCCCCCC(N)C(=O)O; Hexenoyl(3E) = CC/C=C/CC(=O)*

Legend:
blood glucose = test: Blood glucose response to exendin-4 in anaesthetised rats; assay type: in vivo, rat; details: exendin-4 co-formulated in Axcess with recombinant human insulin, via the intestine, n = 5
Description: Male Sprague-Dawley rats aged 8 weeks were checked for health status on delivery and assigned to cages (2 or 3 animals per cage) within the social groups at delivery and with animals of similar weight in the same cage. Animals were acclimated to the facility for 7 days before transfer to the study room for a further 4 days before the start of the experiment. The rats were randomly allotted to control and treatment groups. Animals were identified by cage tag and corresponding colour tail markings. At day −2 daily 24 h food intake was registered for each cage with 2-3 rats. At 14.00 h on day −1 (i.e., the day prior to the surgery) 50% of the usual food consumed in that interval was offered to the rats. […]
All data were entered into Excel spreadsheets and subsequently subjected to relevant statistical analyses (Graph Pad Prism software). […] Bioavailability=AUC peptide enteral administration/quantity of peptide administered enterally×quantity of peptide injected i.v./AUC of peptide after i.v. injection×100 Biopotency=biological activity after enteral administration/quantity of peptide administered enterally×quantity of peptide injected i.v./biological activity after i.v. injection×100

[1] = ref unpublished data; cited from earlier work
Description: In a separate experiment, intestinal delivery was studied of two GLP-1 analogues where modifications were made with the aim of increasing their circulating half-life by several hours relative to the native molecule. In one variant, G001, the molecule was identical to native GLP-1, except that N-terminal amino group was conjugated with salicylic acid. In the second, lipidated, analogue, G002, the N-terminal was conjugated with trans-3-hexenoic acid, and in position 14, leucine was replaced by octyl glycine. In addition, glutamate and alanine in positions 21 and 24 respectively were reversed, an ...

Row | Molecule | blood glucose with co-formulated insulin (blood glucose) | half-life in rats [1] [h]
1 | recombinant human insulin: recombinant human insulin co-formulated with exendin-4 in the Axcess formulation | reduce blood glucose relative to exendin-4 administered alone | 
2 | Sal-HAEGTFTSDVSSYLEGQAAKEFIAWLVKGR-NH2 [G001, identical to native GLP-1, except that N-terminal amino group was conjugated with salicylic acid] |  | 0.417
3 | CC/C=C/CC(=O)N[C@@H](Cc1c[nH]cn1)C(=O)N[C@@H](C)C(=O)N[C@@H](CCC(=O)O)C(=O)NCC(=O)N[C@H](C(=O)N[C@@H](Cc1ccccc1)C(=O)N[C@H](C(=O)N[C@@H](CO)C(=O)N[C@@H](CC(=O)O)C(=O)N[C@H](C(=O)N[C@@H](CO)C(=O)N[C@@H](CO)C(=O)N[C@@H](Cc1ccc(O)cc1)C(=O)NC(CCCCCCCC)C(=O)N[C@@H](CCC(=O)O)C(=O)NCC(=O)N[C@@H](CCC(N)=O)C(=O)N[C@@H](C)C(=O)N[C@@H](C)C(=O)N[C@@H](CCCCN)C(=O)N[C@@H](C)C(=O)N[C@@H](Cc1ccccc1)C(=O)N[C@H](C(=O)N[C@@H](CCC(=O)O)C(=O)N[C@@H](Cc1c[nH]c2ccccc12)C(=O)N[C@@H](CC(C)C)C(=O)N[C@H](C(=O)N[C@@H](CCCCN)C(=O)N[C@@H](CC(N)=O)C(N)=O)C(C)C)[C@@H](C)CC)C(C)C)[C@@H](C)O)[C@@H](C)O (stereo partly drawn) [G002] ({Hexenoyl(3E)}-HAEGTFTSDVSSY[ξGly(octyl)]EGQAAKAFIEWLVKN-NH2) |  | ~12
